Results reported in patent publication EP3727588B1, “ACTIVATOR PEPTIDES OF THE ENZYME ADAM 10 AND RELATED USES IN THE TREATMENT OF ALZHEIMER'S DISEASE” (UNIVERSITA' DEGLI STUDI DI MILANO, priority 2017, dated 2019).
Values joined by “and” are separate entries in the source; they are usually repeats but may differ in a detail not shown here. Equal values may be shown once. Peptide text beside a SMILES is read from it.

Assay: blood count and platelet count after 14 days' treatment
Format: in vivo, mice
Design: key to Aggregate s: +, ++, +++ considering the presence of platelet aggregates detected in the blood smear that make the analysis difficult; +, ++, +++ considering the presence of platelet aggregates detected in the blood smear that make the analysis difficult; +, ++, +++ considering the presence of platelet aggregates detected in the blood smear that make the analysis difficult; key to Estimate Plt: A= appropriate platelet estimate
Protocol: C57/BL6 adult mice were treated for 14 days with daily intraperitoneal injection of saline solution or peptides at a dose of 3 nmol/g (6-10 animals per experimental group). The animals were maintained in an enclosure at 25 ± 2 °C with an alternating light/dark cycle of 12 hours and had free access to water and food in the form of pellets (standard diet).
The blood, collected through cardiac puncture, was analysed with a laser counter (ADVIA 120, Siemens) using specific software for the murine species. From each sample a blood smear was prepared, stained with the May Grünwald-Giemsa method, and used for the morphological analysis of the leukocytes, the red blood cells and the platelet estimate. After the automatic counting of the cells and the preparation of the smear, all the samples were centrifuged and the plasma was transferred into separate test tubes. The analysis of the plasma samples was performed through automatic spectrophotometer (ILAB-300, Instrumentation Laboratory). All the results were compared with the values provided by the company Charles River for mice of the same strain and age.
The range values are provided by Charles River for C57BL mice aged between 56-70 days, whose blood was collected by cardiac puncture after euthanasia.

[1] = individual animal, 14 days, daily intraperitoneal 3 nmol/g

Compound: N=C(N)NCCC[C@H](NC(=O)CNC(=O)[C@@H](N)Cc1ccc(O)cc1)C(=O)N[C@@H](CCCCN)C(=O)N[C@@H](CCCCN)C(=O)N[C@@H](CCCNC(=N)N)C(=O)N[C@@H](CCCNC(=N)N)C(=O)N[C@@H](CCC(N)=O)C(=O)N[C@@H](CCCNC(=N)N)C(=O)N[C@@H](CCCNC(=N)N)C(=O)N[C@@H](CCCNC(=N)N)C(=O)NCC(=O)NCC(=O)N[C@@H](CO)C(=O)NCC(=O)N[C@@H](CCC(N)=O)C(=O)N1CCC[C@H]1C(=O)N1CCC[C@H]1C(=O)N[C@@H](CCCNC(=N)N)C(=O)N[C@@H](CCC(N)=O)C(=O)N[C@@H](CCCNC(=N)N)C(=O)N1CCC[C@H]1C(=O)N[C@@H](CCCNC(=N)N)C(=O)NCC(=O)O [PEP3] (H-YGRKKRRQRRRGGSGQPPRQRPRG-OH)
- (Ht) (group mean): 46.2%
- Hb (group mean): 11.8 g/dL
- Mean Corpuscula r Hb (MCH) (group mean): 13.5 pg
- Mean Corpuscula r Hb Conc. MCHC (group mean): 25.6%
- Platelet count (group mean): 999000 µL⁻¹
- Red blood cells (group mean): 8.74e+06 µL⁻¹
- Red cell distribution width (RDW) (group mean): 19.5%
- Vol. Mean Corp. Vol. (MCV) (group mean): 52.9 fL
- (Ht) (group median): -46.9%
- Hb (group median): -11.9 g/dL
- Mean Corpuscula r Hb Conc. MCHC (group median): -25.8%
- Platelet count (group median): -1.082e+06 µL⁻¹
- Red blood cells (group median): -8.8e+06 µL⁻¹
- Red cell distribution width (RDW) (group median): -19.7%
- Vol. Mean Corp. Vol. (MCV) (group median): -53.1 fL
- Estimate Plt (individual animal, blood smear, first part of cell): A
- Aggregate s (individual animal, blood smear, second part of cell): +++
- (Ht) [1]: 41.5% and 47.4% and 48.5% and 48% and 46.3% and 45.7%
- Hb [1]: 10.9 g/dL and 11.7 g/dL and 12.5 g/dL and 11.9 g/dL (3×)
- Mean Corpuscula r Hb (MCH) [1]: 13.4 Pg (2×) and 13.8 Pg and 13.3 Pg and 13.5 Pg and 13.6 Pg
- Mean Corpuscula r Hb Conc. MCHC [1]: 26.3% and 24.7% and 25.8% and 24.8% and 25.7% and 26%
- Platelet count [1]: 861000 µL⁻¹ and 711000 µL⁻¹ and 1.333e+06 µL⁻¹ and 391000 µL⁻¹ and 1.302e+06 µL⁻¹ and 1.394e+06 µL⁻¹
- Red blood cells [1]: 8.14e+06 µL⁻¹ and 8.75e+06 µL⁻¹ and 9.04e+06 µL⁻¹ and 8.94e+06 µL⁻¹ and 8.84e+06 µL⁻¹ and 8.72e+06 µL⁻¹
- Red cell distribution width (RDW) [1]: 18.7% and 19.3% and 19.9% (2×) and 19.7% (2×)
- Vol. Mean Corp. Vol. (MCV) [1]: 51 fL and 54.2 fL and 53.7 fL (2×) and 52.4 fL (2×)
